In PMC6403271, “Characterization, mechanism of action and optimization of activity of a novel peptide-peptoid hybrid against bacterial pathogens involved in canine skin infections” (Scientific Reports, 2019):
Square brackets hold non-standard residues; d marks the D form. Peptide text beside a SMILES is read from it. N(1-naphthylmethyl)Gly = O=C(O)CNCc1cccc2ccccc12; d1Nal = N[C@H](Cc1cccc2ccccc12)C(=O)O; N(4-MeBn)Gly = Cc1ccc(CNCC(=O)O)cc1; dNle = CCCC[C@@H](N)C(=O)O; NBuGly = CCCCNCC(=O)O

Experiments:
[1] = tested on: Pronase; conditions: cited from earlier work
[2] = tested on: cell wall synthesis in MRSP E104; experiment: Macromolecule biosynthesis rate, cell wall (3H-glucosamine); assay type: cell-based, Staphylococcus pseudintermedius; conditions: MRSP E104, 1.5 µg/mL, 20 min
Protocol: Macromolecule biosynthesis rate was measured in MRSP E104 following a protocol adapted from Ling et al.[65]. Briefly, E104 overnight culture was sub-cultured 1:100 in MHB II and grown up to OD 0.2 at 600 nm. Cells were pelleted down by centrifugation and resuspended in fresh medium followed by incubation for 20 min with B1 or nisin at 1.5 µg/ml and 1.25 µg/ml, respectively, and radiolabeled precursor: (50µCi) 3H-Thymidine (PerkinElmer) and (5µCi) 3H-glucosamine hydrochloride per ml for DNA and cell wall, respectively. A positive control without antimicrobial was maintained. After incubation, samples were precipitated with equal volume of cold 30% TCA (Sigma) on ice. Precipitates were filtered on a membrane filter and subsequently subjected to two washes of cold 15% TCA and two washes of cold water using vacuum manifold. Subsequently, filters were air dried overnight and then transferred to 10 ml scintillation vials. Finally, scintillation fluid (3 ml) was added to each vial and ^3H count was taken in Beckman Coulter LS6500 liquid scintillation counter for one minute. The radioactive counts of the control samples were considered to have 100% precursor incorporation and macromolecule synthesis. The percentage rates of the antimicrobial-exposed samples were calculated accordingly. Each experiment was performed with replicates and the average rates of incorporation were plotted.

[3] = tested on: membrane potential of MRSP E104; experiment: DiSC3(5) fluorescence-based membrane potential study; assay type: cell-based, Staphylococcus pseudintermedius; conditions: MRSP E104, sub-inhibitory concentration 1.5 µg/mL
Protocol: Freshly sub-cultured E104 cells were labelled with 1 µM 3,3-Dipropylthiadicarbocyanine iodide [DiSC3(5)] (Sigma) in MHB II. The fluorescence spectra of labelled cells were plotted in the LS50B luminescence spectrometer (PerkinElmer) at excitation/emission wavelengths 546 nm/573 nm using time drive application of FLWINLAB software. After reading an initial stable emission spectra of DiSC3(5), labelled cells were treated with B1 or nisin or protonophore CCCP at 1, 1.5 and 1.25 µg/ml, respectively and the change of fluorescence over time was recorded. The increment of DiSC3(5) fluorescence upon addition of antimicrobials or CCCP (FUafter-treatment – FUbefore-treatment) was plotted. This experiment was performed twice and each time with two technical replicates.

[4] = tested on: human red blood cells; design: method as in PMID 29534469; conditions: at 150 µM; cited from earlier work
[5] = tested on: MSSA (ATCC 29213); assay type: cell-based, Staphylococcus aureus; conditions: ATCC 29213, 18 h
In short: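 Broth microdilution per CLSI M31-A3 on canine clinical isolates plus reference MRSP C22963, MSSA and P. aeruginosa 26314; 5 × 10^5 CFU/mL in MHB II with two-fold dilutions from 1 to 64 µg/ml. MIC = lowest concentration without visible growth after 18 hours at 37 °C; triplicates on two days.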

[6] = topical delivery from cream formulation; cited from earlier work
[7] = tested on: MRSP E104; experiment: High-throughput growth curves (BioScreen); assay type: cell-based, Staphylococcus pseudintermedius; conditions: 3 µg/ml; decrease of OD over time
Protocol: The effects of B1 on the growth of a reference MRSP strain (ST71, E104) were evaluated using BioScreen (Oy Growth Curves Ab LTd, Finland). A well characterized antimicrobial peptide, Nisin, was used as a positive control. […] The OD600 of each micro-culture was measured and recorded every 15 min after a 5 second pause of shaking in automatic mode. The recorded ODs were plotted against time to prepare the growth curves. The assay was performed with technical and biological replicates, and one representative result was presented.

[8] = tested on: MRSP E104; experiment: Flow cytometry (TO/PI) of antimicrobial-exposed cells; assay type: cell-based, Staphylococcus pseudintermedius; conditions: MRSP E104, lysis concentration (1x MIC), 3 µg/ml, 1 h
Protocol: Freshly grown cultures (OD 0.2 at 600 nm) of MRSP E104 were exposed to 3 µg/ml of B1 or 2.5 µg/ml of nisin for 1 h and diluted 1:10 in flow cytometry analysis buffer (PBS supplemented with 1 mM EDTA, 0.01% Tween 20 and filtered by 0.22 µm membrane). Diluted cells were stained with 420 nM thiazole orange (TO, Sigma) and 48 µM propidium iodide (PI, Sigma) and analysed using BD ACCURI C6 flow cytometer (BD Biosciences). Unstained cells were used as negative control. Finally, the differentially labelled bacterial populations in antimicrobial-exposed cultures were plotted under FL3(red)/FL1(green) axis using the instrument’s software and categorised into four different conditions: P1 (unstained), P2 (dead cells), P3 (injured cells) and P4 (live cells).

[9] = Precipitation in time-kill media; assay type: physicochemical; conditions: time-kill experiment against P. aeruginosa, MHB II
Protocol: Time kill assays were performed in triplicate, meaning that every value is the average of three different samplings. Time–kill kinetic assays were performed using P. aeruginosa (26314), MRSP E104 and/or MRSP C22963 to determine the cell killing activity of B1 and two of its most promising analogues (compounds 23 and 26) based on prior antimicrobial susceptibility testing. The method reported by Blondeau et al.[63] was followed with minor modifications. Briefly, the assay was performed in MHB II with concentrations corresponding to 0.5, 1, 2 and 4 times the MIC of the strain. After 0, 15, 30, 60, 120, 180 and 300 min of growth, 100 μL aliquots were collected and 10-fold serially diluted. Twenty μL of cell suspension from each dilution were spotted in triplicate on blood agar plates followed by 16–18 h incubation at 37 °C and determination of colony forming units (CFU).

SMILES | degradation by protease mix Pronase [1] [%] | reduction in cell wall synthesis [2] [%] | membrane potential, DiSC3(5) fluorescence emission [3] | hemolytic activity [4] [%] | Minimum Inhibitory Concentration MSSA (ATCC 29213) [5] [µg/mL] | skin penetration after administration [6] | growth curve effect on MRSP E104 [7] | flow cytometry PI/TO staining [8] | precipitation in the media [9]
CCCCN(CC(=O)N[C@@H](CCCCN)C(=O)N(CC(=O)N(CC(=O)N(CC(N)=O)Cc1cccc2ccccc12)Cc1ccc(C)cc1)Cc1cccc2ccccc12)C(=O)[C@H](CCCCN)NC(=O)[C@@H](N)CCCCN [B1, Lys-Lys-(NBu)Gly-Lys-(N1-Nal)Gly-(N4-MeBn)Gly-(N1-Nal)Gly] (H-KK[NBuGly]K[N(1-naphthylmethyl)Gly][N(4-MeBn)Gly][N(1-naphthylmethyl)Gly]-NH2) | 38 | 20 | significant membrane depolarization | 32 | 8 to 16 | no skin penetration | cell lysis | Cell death | 
CCCC[C@@H](NC(=O)[C@H](CCCCN)NC(=O)[C@H](CCCCN)NC(=O)[C@@H](N)CCCCN)C(=O)N[C@H](Cc1cccc2ccccc12)C(=O)N[C@H](Cc1ccccc1)C(=O)N[C@H](Cc1cccc2ccccc12)C(N)=O [Compound 26, Lys-Lys-Lys-nle-(1-Nal)ala-phe-(1-Nal)ala] (H-KKK[dNle][d1Nal][dF][d1Nal]-NH2; N-terminus assumed) |  |  |  |  |  |  |  |  | precipitated after 15 min
